# Test results as given in patent publication US7550425B2, “Diuretic peptide conjugates” (Zealand Pharma A/S, priority 2000, dated 2009).
# Read-outs that look alike come from different tables or passages of the source.
# Legend:
# [1] = test system: conscious Sprague Dawley rats; type: in vivo, rat; as to Behavioral changes: key: 0 indicates a lack of response; (↓) indicates a very weak decrease; ↓ indicates a weak decrease; ↑ indicates a weak increase; ↑↑ indicates a strong increase; as to Food intake: key: 0 indicates a lack of response; (↓) indicates a very weak decrease; ↓ indicates a weak decrease; ↑ indicates a weak increase; ↑↑ indicates a strong increase; as to UNaV: key: 0 indicates a lack of response; (↓) indicates a very weak decrease; ↓ indicates a weak decrease; ↑ indicates a weak increase; ↑↑ indicates a strong increase
# Description: In the conscious rat model, the animal is chronically instrumented with catheters in the urinary bladder, the femoral artery, and the femoral vein. The animal receives a continuous i.v. infusion with isotonic saline, 50 μl/min. Urine is collected in vials in consequtive urine collection periods of 10 min each. After two control periods, the test compound is administered and fractionated urine collections (10 min periods) are continued for at least two hours. Urinary concentrations of sodium and potassium are determined by flame photometry (Instrumentation Laboratory 943) using caesium as internal standard.
# The diuretic effect of the peptide conjugates of the invention has been tested in conscious rats, where Compound 1 elicits a powerful and sustained diuretic response. Cardiovascular and renal responses produced by i.v. infusion of nociceptin (Phoenix Pharmaceuticals) and Compound 1 have been studied in conscious Sprague Dawley rats. The results are shown in FIGS. 2 to 8 wherein HR is heart rate, MAP is mean arterial pressure, V is urine flow rate, UNaV is urinary excretion rate of sodium, RSNA is renal sympathetic nerve activity expressed as % of the control level, Cosm is the osmolar clearance, and CH2O is free water clearance.
# Furthermore, the effects of i.v. bolus administration of nociceptin (30 and 100 nmol/kg, Phoenix Pharmaceuticals) and nociceptin-NH2 (30 nmol/kg) on heart rate, arterial pressure and RSNA were studied in groups of 6 conscious Sprague-Dawley rats.
# […] After stabilization of urine flow rate and urinary sodium excretion, urine was collected during a 20-min control period. After this, the i.v. bolus injection was given or the i.v. infusate was switched to a solution of isotonic saline containing Compound 1 (i.v. infusion experiments). From the time of drug administration, experimental urine samples (10-min consecutive periods) were taken for 80 min.
# One hour prior to the start of each experiment a food pellet (standard rodent chow) was placed within access to the rat though a hole in the rat holder. The number and time of feeding responses (i.e., times in which the rat began to eat the food pellet) was recorded before, and after drug administration. If a positive feeding response was observed, the pellet was removed from the restrainer to prevent feeding-induced alterations in heart rate and/or mean arterial pressure. At 10-min intervals, the food pellet was presented to the rat to determine the duration of the feeding response.
# cirrhotic rats = assay: Renal responses in rats with liver cirrhosis induced by common bile duct ligation and sham-operated controls; type: in vivo, rat; conditions: i.v. bolus 65 nmol/kg
# Description: Rats with liver cirrhosis induced by common bile duct ligation develop avid sodium and water retention and ascites within 2-4 weeks. The disturbed sodium and water balance in cirrhotic rats is in agreement with the pivotal clinical findings of edema and ascites in patients with liver cirrhosis. To examine the efficacy of Compound 1 in an experimental model of an edema-forming state, the diuretic response to an acute i.v. bolus injection of Compound 1 (65 nmol/kg) was evaluated in rats with liver cirrhosis induced by common bile duct ligation 4 weeks earlier. Prior to the experiments, rats were instrumented with chronic catheters in the urinary bladder, and in the femoral vein and artery. Renal responses to Compound 1 were compared with responses in sham-operated control rats. […] Relative changes in urine flow rate, sodium and potassium excretion after i.v. administration of 65 nmol/kg in sham-operated control animals are summarized in FIG. 7.
# Changes in urine flow rate, free water clearance, fractional sodium excretion and fractional potassium excretion after i.v. administration of 65 nmol/kg in sham-operated control and cirrhotic animals are summarized in FIG. 8.
# [2] = test system: nociceptin-induced smooth muscle relaxation in mouse vas deferens; assay: Mouse vas deferens assay: antagonism of nociceptin-induced relaxation (Schild pA2)
# Description: The vas deferens from male NMRI albino mice weighing 30-40 g were placed in a SCHULER organ bath Type 809, Hugo Sachs Elektronik, Germany, and perfused with a 37° C., modified Krebs solution (NaCl 6,9 g/L, KCl 0.35 g/L, KH2PO4 0.16 g/L, NaHCO3 2.1 g/L, Glucose H2O 2.0 g/L, CaCl2 2.52 mL/L). The solution was gassed with carbogen (95% O2 and 5% CO2) throughout the experiment. The tissue was electrically stimulated through two silver electrodes directly in the organ bath using a HSE Stimulator I Type 215. Stimulation of the tissue was performed by applying a supramaximal voltage (15 Volts) in trains of 10 square pulses every 60 s, each of 1 ms duration with a frequency of […]. Concentration-response curves were performed by adding test substances that relax mouse vas deferens smooth muscles cumulatively to the organ baths. The test substances used in the assay were nociceptin in an isotonic saline solution, Compound 1 (as the trifluoroacetate in an isotonic saline solution), Compound 2 (as the trifluoroacetate in an isotonic saline solution), and the hexapeptide Ac-RYYRWK-NH2 (SEQ ID NO: 1) (as the trifluoroacetate in an isotonic saline solution).
# The effects of Ac-RYYRWK-NH2 (SEQ ID NO: 1) and Compound 1 on nociceptin-induced relaxation in the mouse vas deferens assay were also tested. […] Using the Schild equation ^[7], the pA2 values which indicates affinity of a compound as an antagonist were calculated.
# [3] = I.v. bolus injection 30 nmol/kg
# [4] = I.v. infusion 0.1 nmol/kg/min (n = 6)
# [5] = I.v. infusion 1.0 nmol/kg/min (n = 6)
# [6] = I.v. infusion 10 nmol/kg/min (n = 6)
# [7] = i.v. infusion 1 and 0.1 nmol/kg/min, FIG. 3
# [8] = cirrhotic and sham-operated rats
substance,measurement,setting,value
"Ac-RYYRWKKKKKKK-NH2 [Compound 1, Ac-RYYRWKKKKKKK-NH2]",Δ Blood Pressure (%),[1]; I.v. bolus 10 nmol/kg (n = 6),−4 ± 1%
same,Δ K excretion (%),[1]; I.v. bolus 10 nmol/kg (n = 6),−35 ± 4%
same,Δ Na excretion (%),[1]; I.v. bolus 10 nmol/kg (n = 6),−44 ± 3%
same,Δ Urine Flow (%),[1]; I.v. bolus 10 nmol/kg (n = 6),+83 ± 42%
same,Δ Blood Pressure (%),[1]; I.v. bolus 30 nmol/kg (n = 4),−8 ± 2%
same,Δ K excretion (%),[1]; I.v. bolus 30 nmol/kg (n = 4),−20 ± 7%
same,Δ Na excretion (%),[1]; I.v. bolus 30 nmol/kg (n = 4),−51 ± 7%
same,Δ Urine Flow (%),[1]; I.v. bolus 30 nmol/kg (n = 4),+207 ± 11%
same,Δ Blood Pressure (%),[1]; I.v. bolus 100 nmol/kg (n = 6),−12 ± 2%
same,Δ K excretion (%),[1]; I.v. bolus 100 nmol/kg (n = 6),−52 ± 5%
same,Δ Na excretion (%),[1]; I.v. bolus 100 nmol/kg (n = 6),−70 ± 2%
same,Δ Urine Flow (%),[1]; I.v. bolus 100 nmol/kg (n = 6),+249 ± 60%
same,Δ Blood Pressure (%),[1]; I.v. bolus 300 nmol/kg (n = 4),−15 ± 3%
same,Δ K excretion (%),[1]; I.v. bolus 300 nmol/kg (n = 4),−79 ± 6%
same,Δ Na excretion (%),[1]; I.v. bolus 300 nmol/kg (n = 4),−85 ± 6%
same,Δ Urine Flow (%),[1]; I.v. bolus 300 nmol/kg (n = 4),+127 ± 47%
same,Behavioral changes,[1]; [3],0
same,Food intake,[1]; [3],0
same,HR,[1]; [3],0
same,MAP,[1]; [3],0
same,Behavioral changes,[1]; I.v. infusion 0.1 nmol/kg/min,0
same,Food intake,[1]; I.v. infusion 0.1 nmol/kg/min,0
same,HR,[1]; I.v. infusion 0.1 nmol/kg/min,0
same,UNaV,[1]; I.v. infusion 0.1 nmol/kg/min,0
same,Δ Blood Pressure (%),[1]; [4],−5 ± 4%
same,Δ K excretion (%),[1]; [4],−16 ± 6%
same,Δ Na excretion (%),[1]; [4],−5 ± 3%
same,Δ Urine Flow (%),[1]; [4],+99 ± 21%
same,Behavioral changes,[1]; I.v. infusion 1.0 nmol/kg/min,0
same,Food intake,[1]; I.v. infusion 1.0 nmol/kg/min,0
same,HR,[1]; I.v. infusion 1.0 nmol/kg/min,0
same,Δ Blood Pressure (%),[1]; [5],−10 ± 2%
same,Δ K excretion (%),[1]; [5],−51 ± 9%
same,Δ Na excretion (%),[1]; [5],−64 ± 7%
same,Δ Urine Flow (%),[1]; [5],210 ± 51%
same,Δ Blood Pressure (%),[1]; [6],−15 ± 3%
same,Δ K excretion (%),[1]; [6],−68 ± 15%
same,Δ Na excretion (%),[1]; [6],−79 ± 6%
same,Δ Urine Flow (%),[1]; [6],160 ± 68%
same,bradycardia and hypotension to an i.v. bolus injection of nociceptin,"[1]; after 120 min of i.v. infusion 1 nmol/kg/min, n=6",completely blocked
same,water diuretic response,[1]; continuous i.v. infusion 1 and 10 nmol/kg/min,selective water diuretic response
same,"heart rate, arterial pressure and RSNA",[1]; i.v. bolus 30 nmol/kg,"did not produce any changes in heart rate, blood pressure or RSNA"
same,stimulation of appetite or behavioral changes,[1]; i.v. bolus 30 nmol/kg,do not show any signs of stimulation of appetite or behavioral changes
same,diuretic (V) and antinatriuretic (UNaV) response,"[1]; i.v. bolus 30 nmol/kg, data not shown",marked diuretic (V) and antinatriuretic (UNaV) response
same,"appetite, sedation, behavioral changes",[1]; i.v. infusion 1 and 0.1 nmol/kg/min,"no signs of increased appetite, sedation, or behavioral changes"
same,HR response,[1]; [7],little effect on HR
same,MAP response,[1]; [7],"slight, but significant reduction in MAP"
same,diuretic (V) and antinatriuretic (UNaV) responses,[1]; [7],significant diuretic (V μl/min) and antinatriuretic responses
same,fold more potent than nociceptin in producing similar magnitude diuretic and antinatriuretic responses,"[1]; i.v. infusion, FIGS. 5 and 6",approximately 10 fold
same,duration of the diuretic effect,"[1]; i.v. infusion, compared with nociceptin",tended to persist for a greater duration than that of i.v. nociceptin infusion
same,"renal responses, cirrhotic versus control rats",cirrhotic rats,renal responses were similar in cirrhotic and control rats
same,fractional excretion of sodium and potassium,cirrhotic rats; FIG. 8,decrease in fractional excretion of sodium and potassium
same,urine flow rate,cirrhotic rats; FIG. 8,marked increase in urine flow rate
same,glomerular filtration rate,cirrhotic rats; [8],absence of changes in the glomerular filtration rate
same,urinary excretion of sodium and potassium,cirrhotic rats; [8],decrease in urinary excretion of sodium and potassium
same,pA2 value,"[2]; Schild equation, antagonism of nociceptin-induced relaxation, n = 4",9.5 (n = 4)
same,fold more potent as an antagonist than Ac-RYYRWK-NH2,"[2]; nociceptin-induced smooth muscle relaxation, MVD assay",about 50 fold
